How the values were obtained:
Test in all cases: relative viability (nuclei count vs DMSO), 5 days (fraction); higher = more cells survive
[1] = tested on: ABC-1
Procedure, shortened: (§1)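 Cells from lung cancer lines were seeded into 1536-well plates and, one day later, dosed by pin tool. Treatments were either a single drug or a fixed dose of an anchor drug with five library-drug doses (not always all listed) in √10 steps. After 5 days, nuclei were stained in a one-step fixation (final 0.05% Triton X-100, 1% formaldehyde, 1 ug/ml Hoechst) and counted on 4× images, and relative viability is the treated-to-vehicle nuclei ratio, as the median of duplicate plates.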

[2] = tested on: ChaGo-K-1
Procedure, shortened: as §1

[3] = tested on: HCC-78
Procedure, shortened: as §1

[4] = tested on: HOP-62
Procedure, shortened: as §1

[5] = tested on: LCLC-97TM1
Procedure, shortened: as §1

[6] = tested on: LOU-NH91
Procedure, shortened: as §1

[7] = tested on: NCI-H1355
Procedure, shortened: as §1

[8] = tested on: NCI-H1437
Procedure, shortened: as §1

[9] = tested on: NCI-H1755
Procedure, shortened: as §1

[10] = tested on: NCI-H1792
Procedure, shortened: as §1

[11] = tested on: NCI-H2009
Procedure, shortened: as §1

[12] = tested on: NCI-H2023
Procedure, shortened: as §1

[13] = tested on: NCI-H2085
Procedure, shortened: as §1

[14] = tested on: NCI-H2170
Procedure, shortened: as §1

[15] = tested on: NCI-H23
Procedure, shortened: as §1

[16] = tested on: NCI-H2405
Procedure, shortened: as §1

[17] = tested on: NCI-H322M
Procedure, shortened: as §1

[18] = tested on: NCI-H650
Procedure, shortened: as §1

[19] = tested on: NCI-H727
Procedure, shortened: as §1

[20] = tested on: RERF-LC-KJ
Procedure, shortened: as §1

[21] = tested on: SK-MES-1
Procedure, shortened: as §1

[22] = tested on: UMC-11
Procedure, shortened: as §1

## CCCCCCCCCCCC1=C(O)C(=O)C=C(O)C1=O [Embelin] + C[C@@H](Oc1cc(-c2cnn(C3CCNCC3)c2)cnc1N)c1c(Cl)ccc(F)c1Cl [Crizotinib] (partner 1 µM)
[1]; first compound 0.08 µM
  relative viability: 0.896
[1]; first compound 0.8 µM
  relative viability: 1.26
[1]; first compound 2.53 µM
  relative viability: 1.7
[1]; first compound 8 µM
  relative viability: 1.21
[2]; first compound 0.08 µM
  relative viability: 1.13
[2]; first compound 0.8 µM
  relative viability: 1.22
[2]; first compound 2.53 µM
  relative viability: 1.32
[2]; first compound 8 µM
  relative viability: 1.24
[3]; first compound 0.08 µM
  relative viability: 0.344
[3]; first compound 0.8 µM
  relative viability: 0.373
[3]; first compound 2.53 µM
  relative viability: 0.347
[3]; first compound 8 µM
  relative viability: 0.321
[4]; first compound 0.08 µM
  relative viability: 0.957
[4]; first compound 0.8 µM
  relative viability: 0.926
[4]; first compound 2.53 µM
  relative viability: 0.857
[4]; first compound 8 µM
  relative viability: 0.82
[5]; first compound 0.8 µM
  relative viability: 0.517
[5]; first compound 2.53 µM
  relative viability: 0.358
[5]; first compound 8 µM
  relative viability: 0.312
[6]; first compound 0.08 µM
  relative viability: 0.764
[6]; first compound 0.8 µM
  relative viability: 0.751
[6]; first compound 2.53 µM
  relative viability: 0.763
[6]; first compound 8 µM
  relative viability: 0.741
[7]; first compound 0.08 µM
  relative viability: 1.08
[7]; first compound 0.8 µM
  relative viability: 1.18
[7]; first compound 2.53 µM
  relative viability: 1.17
[7]; first compound 8 µM
  relative viability: 0.974
[8]; first compound 0.08 µM
  relative viability: 0.988
[8]; first compound 0.8 µM
  relative viability: 0.898
[8]; first compound 2.53 µM
  relative viability: 1.01
[8]; first compound 8 µM
  relative viability: 0.452
[9]; first compound 0.08 µM
  relative viability: 0.829
[9]; first compound 0.8 µM
  relative viability: 0.877
[9]; first compound 2.53 µM
  relative viability: 0.921
[9]; first compound 8 µM
  relative viability: 0.871
[10]; first compound 0.08 µM
  relative viability: 0.997
[10]; first compound 0.8 µM
  relative viability: 0.974
[10]; first compound 2.53 µM
  relative viability: 1.19
[10]; first compound 8 µM
  relative viability: 0.964
[11]; first compound 0.08 µM
  relative viability: 1.04
[11]; first compound 0.8 µM
  relative viability: 1.12
[11]; first compound 2.53 µM
  relative viability: 1.11
[11]; first compound 8 µM
  relative viability: 1.06
[12]; first compound 0.08 µM
  relative viability: 0.654
[12]; first compound 0.8 µM
  relative viability: 0.638
[12]; first compound 2.53 µM
  relative viability: 0.801
[12]; first compound 8 µM
  relative viability: 0.609
[13]; first compound 0.08 µM
  relative viability: 0.666
[13]; first compound 0.8 µM
  relative viability: 0.948
[13]; first compound 2.53 µM
  relative viability: 0.925
[13]; first compound 8 µM
  relative viability: 0.835
[14]; first compound 0.08 µM
  relative viability: 1.22
[14]; first compound 0.8 µM
  relative viability: 1.18
[14]; first compound 2.53 µM
  relative viability: 1.4
[14]; first compound 8 µM
  relative viability: 1.36
[15]; first compound 0.08 µM
  relative viability: 0.554
[15]; first compound 0.8 µM
  relative viability: 0.56
[15]; first compound 2.53 µM
  relative viability: 0.55
[15]; first compound 8 µM
  relative viability: 0.705
[16]; first compound 0.08 µM
  relative viability: 0.908
[16]; first compound 0.8 µM
  relative viability: 0.976
[16]; first compound 2.53 µM
  relative viability: 0.892
[16]; first compound 8 µM
  relative viability: 0.955
[17]; first compound 0.08 µM
  relative viability: 0.901
[17]; first compound 0.8 µM
  relative viability: 1.22
[17]; first compound 2.53 µM
  relative viability: 1.07
[17]; first compound 8 µM
  relative viability: 1.16
[18]; first compound 0.08 µM
  relative viability: 0.772
[18]; first compound 0.8 µM
  relative viability: 0.817
[18]; first compound 2.53 µM
  relative viability: 0.711
[18]; first compound 8 µM
  relative viability: 0.782
[19]; first compound 0.08 µM
  relative viability: 0.938
[19]; first compound 0.8 µM
  relative viability: 0.924
[19]; first compound 2.53 µM
  relative viability: 1.06
[19]; first compound 8 µM
  relative viability: 0.898
[20]; first compound 0.08 µM
  relative viability: 0.883
[20]; first compound 0.8 µM
  relative viability: 0.912
[20]; first compound 2.53 µM
  relative viability: 0.906
[20]; first compound 8 µM
  relative viability: 0.937
[21]; first compound 0.08 µM
  relative viability: 1.01
[21]; first compound 0.8 µM
  relative viability: 1.1
[21]; first compound 2.53 µM
  relative viability: 0.952
[21]; first compound 8 µM
  relative viability: 1.11
[22]; first compound 0.08 µM
  relative viability: 0.639
[22]; first compound 0.8 µM
  relative viability: 0.618
[22]; first compound 2.53 µM
  relative viability: 0.644
[22]; first compound 8 µM
  relative viability: 0.572
